Four compounds from US8389011B2, “Pharmaceutical compositions of cholesteryl ester transfer protein inhibitors” (Bend Research, Inc., priority 2000, dated 2013) can be followed below.

Structures are written as SMILES.

A short description of the data set: In vitro dissolution test, microcentrifuge method, in phosphate buffered saline (PBS) pH 6.5. It is filed as physicochemical. How it is done: The compositions comprising the CETP inhibitor and concentration-enhancing polymer provide enhanced concentration of the dissolved CETP inhibitor in in vitro dissolution tests. […] An appropriate PBS solution is an aqueous solution comprising 20 mM sodium phosphate (Na2HPO4), 47 mM potassium phosphate (KH2PO4), 87 mM NaCl, and 0.2 mM KCl, adjusted to pH 6.5 with NaOH. An appropriate MFD solution is the same PBS solution wherein additionally is present 7.3 mM sodium taurocholic acid and 1.4 mM of 1-palmitoyl-2-oleyl-sn-glycero-3-phosphocholine. In particular, a composition of the present invention can be dissolution-tested by adding it to MFD or PBS solution and agitating to promote dissolution.
Indeed, for some extremely insoluble CETP inhibitors, in order to identify the MDC achieved it may be necessary to use an amount of test composition such that if all of the CETP inhibitor dissolved, the CETP inhibitor concentration would be 10,000-fold or even more, that of the equilibrium concentration of the CETP inhibitor.
The MDC is taken to be the maximum value of dissolved CETP inhibitor measured over the duration of the test.
Filtration can be conducted using a 13 mm, 0.45 μm polyvinylidine difluoride syringe filter sold by Scientific Resources under the trademark TITAN®. Centrifugation is typically carried out in a polypropylene microcentrifuge tube by centrifuging at 13,000 G for 60 seconds. Other similar filtration or centrifugation methods can be employed and useful results obtained.
The spray-dried dispersions of Examples 6 and 7 were evaluated in an in vitro dissolution test using a microcentrifuge method. In this test, the spray-dried dispersion was added to a microcentrifuge tube for a Drug 2 dose of about 1000 μg/mL (7.2 mg for Example 6, 18 mg for Example 7). The tube was placed in a 37° C. sonicating bath, and 1.8 mL phosphate buffered saline (PBS) at pH 6.5 and 290 mOsm/kg was added. The samples were quickly mixed using a vortex mixer for about 60 seconds. The samples were centrifuged at 13,000 G at 37° C. for 1 minute. The resulting supernatant solution was then sampled and diluted 1:6 (by volume) with methanol and then analyzed by high-performance liquid chromatography (HPLC). The contents of the tubes were mixed on the vortex mixer and allowed to stand undisturbed at 37° C. until the next sample was taken. Samples were collected at 4, 10, 20, 40, 90, and 1200 minutes.
For Control 2, an in vitro dissolution test was performed using the procedures described above except that 1.8 mg of crystalline Drug 2 was used.
In this method, 7.2 mg of each spray-dried dispersion was added to a 2-mL microcentrifuge tube. The tube was placed in a 37° C. sonicating bath, and 1.8 mL of a phosphate-buffered saline (PBS) solution at pH 6.5 and 290 mOsm/kg was added, resulting in a TCmax of 400 μg/mL. The samples were quickly mixed using a combination of vortex mixer and sonication for about 90 seconds. The samples were centrifuged at 13,000 G at 37° C. for 1 minute. The resulting supernatant solution was then sampled and diluted 1:6 (by volume) with methanol and then analyzed by HPLC. The tubes were then mixed on the vortex mixer and allowed to stand undisturbed at 37° C. until the next sample. Samples were collected at 4, 10, 20, 40, 90 and 1200 minutes.
For Control 5, an in vitro dissolution test was performed using the procedure described above, except that 0.72 mg of non-crystalline Drug 3 was placed in a microcentrifuge tube and mixed with 1.8 mL of PBS.
In this method, 15 mg of each SDD was added to a 2-mL microcentrifuge tube. The tube was placed in a 37° C. sonicating bath, and 1.5 mL of a phosphate-buffered saline (PBS) solution at pH 6.5 and 290 mOsm/kg) was added, resulting in a TCmax of 1000 μg/mL. The samples were quickly mixed using a combination of vortex mixer and sonication for about 90 seconds.

[1] abbreviates: Table 13, Drug 3, PBS, TCmax 400 μg/mL.
The mark [2] stands for this setting: PBS pH 6.5, 37° C., TCmax 1000 μg/mL, time 0 min.
[3] abbreviates: PBS pH 6.5, 37° C., TCmax 1000 μg/mL, time 4 min.
Where [4] appears, read: PBS pH 6.5, 37° C., TCmax 1000 μg/mL, time 10 min.
Where [5] appears, read: PBS pH 6.5, 37° C., TCmax 1000 μg/mL, time 20 min.
Where [6] appears, read: PBS pH 6.5, 37° C., TCmax 1000 μg/mL, time 40 min.
[7] abbreviates: PBS pH 6.5, 37° C., TCmax 1000 μg/mL, time 90 min.
The mark [8] stands for this setting: Table 16, Drugs 4-9, PBS pH 6.5, 37° C., TCmax 1000 μg/mL.

As for `CCCOC(=O)N1c2ccc(C(F)(F)F)cc2[C@@H](N(Cc2cc(C(F)(F)F)cc(C(F)(F)F)c2)C(=O)OC)C[C@H]1CC` [Control 5, [2R,4S]4-[(3,5-bis-trifluoromethyl-benzyl)-methoxycarbonyl-amino]-2-ethyl-6-trifluoromethyl-3,4-dihydro-2H-quinoline-1-carboxylic acid propyl ester], the Concentration is 0 µg/mL (Table 12, Drug 3, PBS pH 6.5, 37° C., 0 min, TCmax 400 μg/mL); under 0.1 µg/mL (Table 12, Drug 3, PBS pH 6.5, 37° C., 4 min, TCmax 400 μg/mL); under 0.1 µg/mL (Table 12, Drug 3, PBS pH 6.5, 37° C., 10 min, TCmax 400 μg/mL); under 0.1 µg/mL (Table 12, Drug 3, PBS pH 6.5, 37° C., 20 min, TCmax 400 μg/mL); under 0.1 µg/mL (Table 12, Drug 3, PBS pH 6.5, 37° C., 40 min, TCmax 400 μg/mL); under 0.1 µg/mL (Table 12, Drug 3, PBS pH 6.5, 37° C., 90 min, TCmax 400 μg/mL). In addition, the AUC (Table 12, Drug 3, PBS pH 6.5, 37° C., to 0 min, TCmax 400 μg/mL) was 0 min-μg/mL; the AUC (Table 12, Drug 3, PBS pH 6.5, 37° C., to 4 min, TCmax 400 μg/mL) was under 0.4 min-μg/mL; the AUC (Table 12, Drug 3, PBS pH 6.5, 37° C., to 10 min, TCmax 400 μg/mL) is recorded as under 1.0 min-μg/mL; the AUC (Table 12, Drug 3, PBS pH 6.5, 37° C., to 20 min, TCmax 400 μg/mL) is under 2.0 min-μg/mL; the AUC (Table 12, Drug 3, PBS pH 6.5, 37° C., to 40 min, TCmax 400 μg/mL) was under 4.0 min-μg/mL; the AUC (Table 12, Drug 3, PBS pH 6.5, 37° C., to 90 min, TCmax 400 μg/mL) was under 9.0 min-μg/mL. Besides, under setting [1], the AUC90 was under 9.0 min-μg/mL. Further, under setting [1], the “Cmax, 90” value is under 0.1 µg/mL.

For `CCOC(=O)N1c2cc(OC)c(OC)cc2[C@@H](N(Cc2cc(C(F)(F)F)cc(C(F)(F)F)c2)C(=O)OC)C[C@H]1C` [Control 6, [2R,4S]4-[(3,5-bis-trifluoromethyl-benzyl)-methoxycarbonyl-amino]-6,7-dimethoxy-2-methyl-3,4-dihydro-2H-quinoline-1-carboxylic acid ethyl ester], the AUC by setting is: under setting [2], 0 min-μg/mL; under setting [3], under 4 min-μg/mL; under setting [4], under 10 min-μg/mL; under setting [5], under 20 min-μg/mL; under setting [6], under 40 min-μg/mL; under setting [7], under 90 min-μg/mL. Moreover, the Concentration runs as follows: under setting [2], 0 µg/mL; under setting [3], under 1 µg/mL; under setting [4], under 1 µg/mL; under setting [5], under 1 µg/mL; under setting [6], under 1 µg/mL; under setting [7], under 1 µg/mL. For the same compound, the AUC90 under setting [8] is under 90 min-μg/mL. Under setting [8], the “Cmax, 90” value was under 1 µg/mL.

Take `CCOC(=O)N1c2cc(CC)c(CC)cc2[C@@H](N(Cc2cc(C(F)(F)F)cc(C(F)(F)F)c2)C(=O)OC)C[C@H]1C` [Control 7, [2R,4S]4-[(3,5-bis-trifluoromethyl-benzyl)-methoxycarbonyl-amino]-6,7-diethyl-2-methyl-3,4-dihydro-2H-quinoline-1-carboxylic acid ethyl ester]: the AUC under setting [2] was determined as 0 min-μg/mL; the AUC under setting [3] is reported as under 4 min-μg/mL; the AUC under setting [4] was under 10 min-μg/mL; the AUC under setting [5] was under 20 min-μg/mL; the AUC under setting [6] was under 40 min-μg/mL; the AUC under setting [7] is under 90 min-μg/mL. In addition, the Concentration reads like this: under setting [2], 0 µg/mL; under setting [3], under 1 µg/mL; under setting [4], under 1 µg/mL; under setting [5], under 1 µg/mL; under setting [6], under 1 µg/mL; under setting [7], under 1 µg/mL. Besides, under setting [8], the AUC90 is recorded as under 90 min-μg/mL. The “Cmax, 90” value under setting [8] was under 1 µg/mL.

With `CCOC(=O)N1c2cc3c(cc2[C@@H](N(Cc2cc(C(F)(F)F)cc(C(F)(F)F)c2)C(=O)OC)C[C@H]1C)CCC3` [Control 8, [2R,4S]4-[(3,5-bis-trifluoromethyl-benzyl)-methoxycarbonyl-amino]-2-methyl-2,3,4,6,7,8-hexahydro-cyclopenta[g]quinoline-1-carboxylic acid ethyl ester], the AUC is, setting by setting: under setting [3], under 4 min-μg/mL; under setting [4], under 10 min-μg/mL; under setting [5], under 20 min-μg/mL; under setting [6], under 40 min-μg/mL; under setting [7], under 90 min-μg/mL. Moreover, the Concentration is, setting by setting: under setting [3], under 1 µg/mL; under setting [4], under 1 µg/mL; under setting [5], under 1 µg/mL; under setting [6], under 1 µg/mL; under setting [7], under 1 µg/mL. Moreover, the AUC90 under setting [8] is recorded as under 90 min-μg/mL. Besides, the “Cmax, 90” value under setting [8] was under 1 µg/mL.
